From patent US20060052362A1, “Skeletal muscle protecting agent” (priority 2003, published 2006)
Read-outs that look alike come from different tables or passages of the source.

Tests used:
squalene synthase = molecular target: T1, squalene synthase (Homo sapiens, UniProt P37268); conditions: described in Test 1 of JP-A No. 9-136880; cited from earlier work
T1 sequence (P37268 1-417): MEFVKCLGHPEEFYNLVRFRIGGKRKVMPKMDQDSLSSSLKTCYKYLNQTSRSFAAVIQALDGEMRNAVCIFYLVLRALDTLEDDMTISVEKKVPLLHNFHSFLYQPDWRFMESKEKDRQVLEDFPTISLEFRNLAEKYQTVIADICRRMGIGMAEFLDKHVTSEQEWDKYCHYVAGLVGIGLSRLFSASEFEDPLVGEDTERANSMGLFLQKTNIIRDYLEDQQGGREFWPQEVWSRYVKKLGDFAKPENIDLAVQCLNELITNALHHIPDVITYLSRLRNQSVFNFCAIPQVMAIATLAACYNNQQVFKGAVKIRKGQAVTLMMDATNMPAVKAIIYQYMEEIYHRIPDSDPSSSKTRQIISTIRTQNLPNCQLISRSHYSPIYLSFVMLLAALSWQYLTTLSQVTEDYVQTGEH

[1] = test system: Human normal skeletal muscle cells; assay: Effect of Test compound 3 on cytotoxicity of HMG-CoA reductase inhibitor (2), pretreatment 1 day; type: cell-based
Experimental: Effect of Test Compound 3 on Cytotoxicity of HMG-CoA Reductase Inhibitor (2)
The drug in Treatment 1 was added and after 1 day, the medium was completely removed.

[2] = test system: Human normal skeletal muscle cells; assay: Effect of Test compound 3 on cytotoxicity of HMG-CoA reductase inhibitor (1), drugs added at the same time; type: cell-based; conditions: 3 days
Description: Effect of Test Compound 3 on Cytotoxicity of HMG-CoA Reductase Inhibitor (1)

[3] = test system: geranylgeraniol (GGOH) content in soleus muscle; assay: Increasing effect on geranylgeraniol (GGOH) content in soleus muscle; type: in vivo; conditions: male SD rat, Mean ± SE (N = 4)
Experimental: Increasing Effect on Geranylgeraniol (GGOH) Content in Soleus Muscle
To 6 week-old male SD rat (4 per group) was orally administered forcedly by means of a stomach sonde a vehicle or Test compounds 1 or 2 at a dose of 10 mL/kg once a day for 14 days so as to be in an amount of 40 or 200 mg/kg. In the next morning of the 14th administration, the rat was killed under ether anesthesia. Immediately, the soleus muscle was collected and frozen on a dry ice, and then kept at −80° C. Later, to the muscle homogenate was added phosphatase for dephosphorylation, and then the concentration of geranylgeraniol (sum total of geranylgeranyl pyrophosphate and geranylgeraniol) in the muscle was determined with LC/MS/MS (Table 1).

[4] = test system: Human normal skeletal muscle cells; conditions: for The number of the live cells (% of Group 1): 3 days
[5] = 40 mg/kg oral once a day for 14 days
[6] = 200 mg/kg oral once a day for 14 days
[7] = single drug 10 μM, other treatment vehicle, Mean ± SE (N = 3)

COc1cccc([C@H]2O[C@H](CC(=O)N3CCC(CC(=O)O)CC3)C(=O)N(CC(C)(C)CO)c3ccc(Cl)cc32)c1OC [Test compound 3, N-[[(3R,5S)-7-chloro-5-(2,3-dimethoxyphenyl)-1-(3-hydroxy-2,2-dimethylpropyl)-2-oxo-1,2,3,5-tetrahydro-4,1-benzoxazepin-3-yl]acetyl]piperidine-4-acetic acid]
inhibitory activity against squalene synthase (squalene synthase): has inhibitory activity against squalene synthase
The number of the live cells (% of Group 1) ([1]; Test compound 3 10 μM for 1 day, medium removed, then Atorvastatin 10 μM 3 days): 76 ± 1.8 % of Group 1
The number of the live cells (% of Group 1) ([1]; Test compound 3 10 μM for 1 day, medium removed, then Atorvastatin 100 μM 3 days): 45 ± 0.2 % of Group 1
The number of the live cells (% of Group 1) ([1]; Test compound 3 10 μM for 1 day, medium removed, then vehicle 3 days, Mean ± SE (N = 3)): 98 ± 2.3 % of Group 1
The number of the live cells (% of Group 1) ([2]; Test compound 3 10 μM added at the same time as Atorvastatin 100 μM): 42 ± 0.5 % of Group 1
The number of the live cells (% of Group 1) ([2]; Test compound 3 10 μM alone (Treatment 2 vehicle), Mean ± SE (N = 3)): 96 ± 1.2 % of Group 1

COc1cccc([C@H]2O[C@H](CC(=O)Nc3cccc(CCC(=O)O)c3)C(=O)N(CC(C)(C)CO)c3ccc(Cl)cc32)c1OC [Test compound 2, 3-[3-[[[(3R,5S)-7-chloro-5-(2,3-dimethoxyphenyl)-1-(3-hydroxy-2,2-dimethylpropyl)-2-oxo-1,2,3,5-tetrahydro-4,1-benzoxazepin-3-yl]acetyl]amino]phenyl]propionic acid]
inhibitory activity against squalene synthase (squalene synthase): has inhibitory activity against squalene synthase
GGOH content in the soleus muscle [3, 5]: 0.225 ± 0.019 μg/g soleus muscle
GGOH content in the soleus muscle [3, 6]: 0.255 ± 0.006 μg/g soleus muscle

CC(C)c1c(C(=O)Nc2ccccc2)c(-c2ccccc2)c(-c2ccc(F)cc2)n1CC[C@@H](O)C[C@@H](O)CC(=O)O [Atorvastatin, atorvastatin, reference compound]
The number of the live cells (% of Group 1) ([1]; vehicle 1 day, then Atorvastatin 10 μM 3 days): 57 ± 1.1 % of Group 1
The number of the live cells (% of Group 1) ([1]; vehicle 1 day, then Atorvastatin 100 μM 3 days): 35 ± 1.9 % of Group 1
The number of the live cells (% of Group 1) ([2]; Atorvastatin 100 μM alone (Treatment 1 vehicle)): 34 ± 0.6 % of Group 1
The number of the live cells (% of Group 1) [4, 7]: 52.0 ± 0.9 % of Group 1

CCC(C)(C)C(=O)O[C@H]1C[C@@H](C)C=C2C=C[C@H](C)[C@H](CC[C@@H]3C[C@@H](O)CC(=O)O3)[C@H]21 [Simvastatin, simvastatin]
The number of the live cells (% of Group 1) [4, 7]: 46.2 ± 1.5 % of Group 1

COc1cccc([C@H]2O[C@H](CC(=O)N3CCC(CC(=O)O)CC3)C(=O)N(CC(C)(C)COC(C)=O)c3ccc(Cl)cc32)c1OC [Test compound 1, N-[[(3R,5S)-1-(3-acetoxy-2,2-dimethylpropyl)-7-chloro-5-(2,3-dimethoxyphenyl)-2-oxo-1,2,3,5-tetrahydro-4,1-benzoxazepin-3-yl]acetyl]piperidine-4-acetic acid]
GGOH content in the soleus muscle [3, 5]: 0.224 ± 0.017 μg/g soleus muscle
GGOH content in the soleus muscle [3, 6]: 0.255 ± 0.027 μg/g soleus muscle

CC(C)=CCC/C(C)=C/CC/C(C)=C/CC/C(C)=C/COP(=O)(O)OP(=O)(O)O [GGPP, geranylgeranyl pyrophosphate]
The number of the live cells (% of Group 1) ([4]; GGPP 10 μM added together with Atorvastatin 10 μM): 67.8 ± 1.3$ % of Group 1
The number of the live cells (% of Group 1) ([4]; GGPP 10 μM added together with Simvastatin 10 μM): 72.3 ± 1.6 % of Group 1
The number of the live cells (% of Group 1) [4, 7]: 93.5 ± 0.8 % of Group 1
activity reducing cytotoxicity in skeletal muscle cells (in words) ([4]; summary of Table 2): had an activity reducing cytotoxicity in skeletal muscle cells
